How the values were obtained:
Format in all cases: cell-based, human
[1] = tested on: cells differentiated from iPS cell line MAP2 Neo #2; assay: Flow cytometry of midbrain DA neuron differentiation with G418 drug selection (Example 1); details: day 38; 100 μg/mL G418 selection; same protocol without drug selection gave 39% neurons
Method: On Day 24, cells were dissociated using Accutase (45 min) and were re-plated at 3.1×10^5 cells/cm^2 onto flasks pre-coated with poly-L-ornithine and laminin (PLO/laminin) in Maturation Medium containing 2.5 μM blebbistatin. Cells were fed with Maturation Medium on Day 25. On Day 27 and Day 29, cells were fed with Maturation Medium containing 100 μg/mL G418 to select against cells not expressing the neomycin resistance gene under the control of a pan-neuronal MAP2 promoter.
On Day 31, cells were dissociated using Accutase (45 min) and were re-plated at 3.1×10^5 cells/cm^2 onto PLO/ laminin flasks in Maturation Medium containing 100 μg/mL G418 and 2.5 μM blebbistatin. On Day 32, Day 34 and Day 36, cells were fed with Maturation Medium. On Day 38, cells were dissociated using Accutase (45 min) and cryopreserved in CryoStor CS10 medium at 1.25×10^7 cells/mL using a controlled rate freezer.
The effect of drug selection on gene expression in cell populations was also analyzed. […] This iPS cell lines (MAP2 Neo #2 (01279.107.00402)) was generated using zinc finger nuclease-mediated homologous recombination at the AAVS1 safe harbor site, as detailed above. The midbrain DA neuron differentiation protocol performed without drug selection results in a population of cells that is 39% neurons (Map2^+/Nestin^−) on day 38. […]

[2] = tested on: cells differentiated from iPS cell line MAP2 Neo #2; assay: Flow cytometry of cells made with the No FGF8 protocol with drug selection (+G418) (Example 2); details: +G418, 7 days post-thaw
Method: On Day 19, cells were dissociated using Accutase (45 min) and were re-plated at 3.1×10^5 cells/cm^2 onto flasks pre-coated with poly-L-ornithine and laminin (PLO/laminin) in Maturation Medium containing 2.5 μM blebbistatin. Cells were fed with Maturation Medium on Days 20, 22 and 24. To compare unselected cells to those that had undergone drug selection, in some experiments a side-arm condition of cells were fed on Day 22 and 24 with Maturation Medium containing 100 μg/mL G418 to select against cells not expressing the neomycin resistance gene under the control of a pan-neuronal MAP2 promoter.
On Day 26, cells were dissociated using Accutase (45 min) and cryopreserved in CryoStor CS10 medium at 1.25×10^7 cells/mL using a controlled rate freezer.
In further studies the purity of mature midbrain DA neurons was assessed by flow cytometry of cells generated using a “no FGF8” protocol alone compared to cells obtained using a drug selection method. When the cells are cryopreserved on day 26 with no drug selection, they are 99% FoxA2^+, 40% TH^+, and 77% Map2^+. […] For comparison, cells made using the same protocol but with drug selection (+G418), the final purity at 7 days post-thaw was 96% FoxA2^+, 63% TH^+, and 98% Map2^+.

MAP2 Neo #2 iPS cells = assay: Midbrain specification during DA progenitor induction with a MEK inhibitor; details: 1 μM PD0325901 added from Day 2 of differentiation
Method: Day 1 medium was composed of DMEM/F12 with B27 Supplement and containing a cocktail of small molecule inhibitors and activators (“Induction Cocktail”): 200 nM LDN-193189, […] SB431542, 2 μM purmorphamine, 100 ng/mL Shh C25II and 1.25 μM CHIR 99021. […] On Day 3 and Day 4, the cells were fed with DMEM/F12 with B27 (−Vitamin A)+Induction Cocktail+1 μM PD0325901.

SMILES | neurons (Map2+/Nestin-) in the cell population [1] [%] | TH+ cells, final purity ([2]; without selection 55%) [%] | Map2+ cells, final purity ([2]; without selection 90%) [%] | FoxA2+ cells, final purity ([2]; without selection 93%) [%] | midbrain specification (MAP2 Neo #2 iPS cells)
CN[C@@H]1[C@@H](O)[C@@H](O[C@@H]2[C@@H](O)[C@H](O[C@H]3O[C@H]([C@@H](C)O)[C@@H](O)[C@H](O)[C@H]3N)[C@@H](N)C[C@H]2N)OC[C@]1(C)O [G418] | 95 | 63 | 98 | 96 | 
O=C(NOC[C@H](O)CO)c1ccc(F)c(F)c1Nc1ccc(I)cc1F [PD0325901] |  |  |  |  | induces faster and more efficient midbrain specification

Source: patent publication US10828335B2, “Production of midbrain dopaminergic neurons and methods for the use thereof” (FUJIFILM Cellular Dynamics, Inc., priority 2014, dated 2020)
